Source: PubChem BioAssay (NCI)
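Briefly, cells in 96-well plates were exposed to five compound concentrations for 48 h, and endpoints were estimated by linear interpolation. GI50 is the concentration that inhibits growth by half. TGI is the concentration that stops growth completely.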

Assays:
Assay in all cases: NCI tumour cell line growth inhibition, 48 h; in the data active = GI50 below about 0.43 µM; inactive = the rest
MDA-MB-435 = test system: MDA-MB-435
M14 melanoma = test system: M14 melanoma
OVCAR-3 ovarian = test system: OVCAR-3 ovarian
NCI-H522 lung = test system: NCI-H522 lung
SNB-75 CNS = test system: SNB-75 CNS
RXF 393 renal = test system: RXF 393 renal
TK-10 renal = test system: TK-10 renal
MDA-MB-231 breast = test system: MDA-MB-231 breast
NCI-H460 lung = test system: NCI-H460 lung
HOP-62 NSCLC = test system: HOP-62 NSCLC
T-47D breast = test system: T-47D breast
A498 renal = test system: A498 renal
SK-MEL-2 melanoma = test system: SK-MEL-2 melanoma
MOLT-4 leukemia = test system: MOLT-4 leukemia
CCRF-CEM leukemia = test system: CCRF-CEM leukemia
A549 NSCLC = test system: A549 NSCLC
SN12C renal = test system: SN12C renal
PC-3 prostate = test system: PC-3 prostate
NCI-H23 lung = test system: NCI-H23 lung
HCT-15 colon = test system: HCT-15 colon
LOX IMVI melanoma = test system: LOX IMVI melanoma
CAKI-1 renal = test system: CAKI-1 renal
U251 CNS = test system: U251 CNS
UACC-62 melanoma = test system: UACC-62 melanoma
HCT-116 colon = test system: HCT-116 colon
UACC-257 melanoma = test system: UACC-257 melanoma
KM12 colon = test system: KM12 colon
K-562 leukemia = test system: K-562 leukemia
HS 578T breast = test system: HS 578T breast
SF-539 CNS = test system: SF-539 CNS
OVCAR-5 ovarian = test system: OVCAR-5 ovarian
SNB-19 CNS = test system: SNB-19 CNS
MALME-3M melanoma = test system: MALME-3M melanoma
HCC-2998 colon = test system: HCC-2998 colon
MCF7 breast = test system: MCF7 breast
ACHN renal = test system: ACHN renal
SK-MEL-5 melanoma = test system: SK-MEL-5 melanoma
IGROV1 ovarian = test system: IGROV1 ovarian
DU-145 prostate = test system: DU-145 prostate
SK-MEL-28 melanoma = test system: SK-MEL-28 melanoma
UO-31 renal = test system: UO-31 renal
COLO 205 colon = test system: COLO 205 colon
HT29 colon = test system: HT29 colon
OVCAR-8 ovarian = test system: OVCAR-8 ovarian
NCI/ADR-RES ovarian = test system: NCI/ADR-RES ovarian
SF-268 CNS = test system: SF-268 CNS
SW-620 colon = test system: SW-620 colon
NCI-H226 lung = test system: NCI-H226 lung
HOP-92 NSCLC = test system: HOP-92 NSCLC
OVCAR-4 ovarian = test system: OVCAR-4 ovarian
SF-295 CNS = test system: SF-295 CNS
SR leukemia = test system: SR leukemia
EKVX NSCLC = test system: EKVX NSCLC
HL-60(TB) leukemia = test system: HL-60(TB) leukemia
RPMI-8226 leukemia = test system: RPMI-8226 leukemia
SK-OV-3 ovarian = test system: SK-OV-3 ovarian
786-0 renal = test system: 786-0 renal
BT-549 breast = test system: BT-549 breast

O=C(Nc1ccc(-n2ccc3c(NC(=O)c4ccccc4)ncnc32)cc1)Nc1ccc(Cl)c(Cl)c1
13.1 µM: TGI (UACC-62 melanoma)
14.2 µM: TGI (ACHN renal) | TGI (SF-295 CNS)
3.2 µM: TGI (RPMI-8226 leukemia)
30.6 µM: TGI (HL-60(TB) leukemia)
2.7 µM: TGI (SR leukemia)
14.7 µM: TGI (A498 renal)
18.2 µM: TGI (IGROV1 ovarian)
5.77 µM: TGI (HS 578T breast)
6.67 µM: TGI (KM12 colon)
14.8 µM: TGI (UO-31 renal)
12 µM: TGI (MALME-3M melanoma)
10.8 µM: TGI (UACC-257 melanoma)
9.89 µM: TGI (COLO 205 colon)
22.3 µM: TGI (NCI-H23 lung)
3.46 µM: TGI (TK-10 renal)
12.9 µM: TGI (SK-MEL-2 melanoma) | TGI (MOLT-4 leukemia) | TGI (SF-268 CNS)
15.1 µM: TGI (SK-MEL-5 melanoma)
2.83 µM: TGI (CCRF-CEM leukemia)
1.8 µM: TGI (OVCAR-4 ovarian)
12.6 µM: TGI (SNB-19 CNS)
16.3 µM: TGI (LOX IMVI melanoma)
inactive: GI50 (MDA-MB-435) 2.44 µM | GI50 (M14 melanoma) 2.42 µM | GI50 (OVCAR-3 ovarian) 1.35 µM | GI50 (NCI-H522 lung) 1.28 µM | GI50 (SNB-75 CNS) 1.03 µM | GI50 (RXF 393 renal) 6.48 µM | GI50 (TK-10 renal) 1.44 µM | GI50 (MDA-MB-231 breast) 4.11 µM | GI50 (NCI-H460 lung) 1.71 µM | GI50 (HOP-62 NSCLC) 1.85 µM | GI50 (T-47D breast) 3.32 µM | GI50 (A498 renal) 7.05 µM | GI50 (SK-MEL-2 melanoma) 5.2 µM | GI50 (MOLT-4 leukemia) 2.75 µM | GI50 (CCRF-CEM leukemia) 0.987 µM | GI50 (A549 NSCLC) 1.95 µM | GI50 (SN12C renal) 4.76 µM | GI50 (PC-3 prostate) 1.06 µM | GI50 (NCI-H23 lung) 6.33 µM | GI50 (HCT-15 colon) 1.74 µM | GI50 (LOX IMVI melanoma) 2.38 µM | GI50 (CAKI-1 renal) 8.79 µM | GI50 (U251 CNS) 0.942 µM | GI50 (UACC-62 melanoma) 6.34 µM | GI50 (HCT-116 colon) 1.66 µM | GI50 (UACC-257 melanoma) 3.57 µM | GI50 (KM12 colon) 1.8 µM | GI50 (K-562 leukemia) 1.73 µM | GI50 (HS 578T breast) 1.19 µM | GI50 (SF-539 CNS) 1.32 µM | GI50 (OVCAR-5 ovarian) 5.62 µM | GI50 (SNB-19 CNS) 4.58 µM | GI50 (MALME-3M melanoma) 3.39 µM | GI50 (HCC-2998 colon) 5.34 µM | GI50 (MCF7 breast) 1.9 µM | GI50 (ACHN renal) 6.25 µM | GI50 (SK-MEL-5 melanoma) 7.05 µM | GI50 (IGROV1 ovarian) 7.16 µM | GI50 (DU-145 prostate) 1.9 µM | GI50 (SK-MEL-28 melanoma) 2.92 µM | GI50 (UO-31 renal) 7.16 µM | GI50 (COLO 205 colon) 2.6 µM | GI50 (HT29 colon) 0.965 µM | GI50 (OVCAR-8 ovarian) 2.38 µM | GI50 (NCI/ADR-RES ovarian) 10.3 µM | GI50 (SF-268 CNS) 4.22 µM | GI50 (SW-620 colon) 1.54 µM | GI50 (NCI-H226 lung) 11.7 µM | GI50 (HOP-92 NSCLC) 1.12 µM | GI50 (OVCAR-4 ovarian) 0.887 µM | GI50 (SF-295 CNS) 4.5 µM | GI50 (SR leukemia) 1.17 µM | GI50 (EKVX NSCLC) 7.24 µM | GI50 (HL-60(TB) leukemia) 8.18 µM | GI50 (RPMI-8226 leukemia) 1.21 µM
8.6 µM: TGI (OVCAR-8 ovarian)
6.97 µM: TGI (HCT-15 colon)
29.2 µM: TGI (NCI-H226 lung)
5.85 µM: TGI (NCI-H460 lung)
11.7 µM: TGI (T-47D breast)
10.3 µM: TGI (SF-539 CNS)
2.86 µM: TGI (PC-3 prostate)
13.2 µM: TGI (OVCAR-5 ovarian)
9.43 µM: TGI (SK-MEL-28 melanoma)
13.3 µM: TGI (RXF 393 renal)
6.31 µM: TGI (DU-145 prostate)
8.25 µM: TGI (MCF7 breast)
5.27 µM: TGI (SNB-75 CNS)
50 µM: TGI (NCI/ADR-RES ovarian)
5.06 µM: TGI (HCT-116 colon)
6.94 µM: TGI (HOP-92 NSCLC)
8.11 µM: TGI (M14 melanoma)
12.3 µM: TGI (SN12C renal)
21 µM: TGI (EKVX NSCLC)
5.31 µM: TGI (SW-620 colon)
2.29 µM: TGI (U251 CNS)
3.5 µM: TGI (OVCAR-3 ovarian)
11 µM: TGI (MDA-MB-231 breast)
7.34 µM: TGI (NCI-H522 lung)
2.9 µM: TGI (HT29 colon)
11.5 µM: TGI (MDA-MB-435)
20.7 µM: TGI (HCC-2998 colon)
6.75 µM: TGI (K-562 leukemia)
7.44 µM: TGI (HOP-62 NSCLC)
6.64 µM: TGI (A549 NSCLC)
21.2 µM: TGI (CAKI-1 renal)

CC(C)(C)c1cc(-n2c(-c3ccc(Cl)cc3)nc3cc(C(=O)Nc4ccc(Cl)cc4)ccc32)n[nH]1
93 µM: TGI (HS 578T breast)
9.58 µM: TGI (SK-MEL-2 melanoma)
94.8 µM: TGI (NCI-H522 lung)
63.6 µM: TGI (RXF 393 renal)
6.51 µM: TGI (HOP-92 NSCLC)
> 100 µM: TGI (TK-10 renal) | TGI (MDA-MB-231 breast) | TGI (NCI-H460 lung) | TGI (T-47D breast) | TGI (A498 renal) | TGI (A549 NSCLC) | TGI (SN12C renal) | TGI (PC-3 prostate) | TGI (NCI-H23 lung) | TGI (U251 CNS) | TGI (UACC-62 melanoma) | TGI (HCT-116 colon) | TGI (UACC-257 melanoma) | TGI (KM12 colon) | TGI (SF-539 CNS) | TGI (786-0 renal) | TGI (OVCAR-5 ovarian) | TGI (SNB-19 CNS) | TGI (BT-549 breast) | TGI (MALME-3M melanoma) | TGI (MCF7 breast) | TGI (ACHN renal) | TGI (IGROV1 ovarian) | TGI (DU-145 prostate) | TGI (SK-MEL-28 melanoma) | TGI (UO-31 renal) | TGI (COLO 205 colon) | TGI (HT29 colon) | TGI (OVCAR-8 ovarian) | TGI (NCI/ADR-RES ovarian) | TGI (SF-268 CNS) | TGI (NCI-H226 lung) | TGI (OVCAR-4 ovarian) | TGI (SF-295 CNS) | TGI (SR leukemia) | TGI (HL-60(TB) leukemia)
66.4 µM: TGI (SK-OV-3 ovarian)
inactive: GI50 (OVCAR-3 ovarian) 3.63 µM | GI50 (NCI-H522 lung) 3.9 µM | GI50 (SNB-75 CNS) 7.08 µM | GI50 (RXF 393 renal) 8.57 µM | GI50 (TK-10 renal) 3.66 µM | GI50 (MDA-MB-231 breast) 23.7 µM | GI50 (NCI-H460 lung) 3.57 µM | GI50 (HOP-62 NSCLC) 14.1 µM | GI50 (T-47D breast) 3.72 µM | GI50 (A498 renal) 1.99 µM | GI50 (SK-MEL-2 melanoma) 2.89 µM | GI50 (A549 NSCLC) 3.71 µM | GI50 (SN12C renal) 5.82 µM | GI50 (PC-3 prostate) 3.29 µM | GI50 (NCI-H23 lung) 4.86 µM | GI50 (U251 CNS) 6.63 µM | GI50 (UACC-62 melanoma) 2.75 µM | GI50 (HCT-116 colon) 3.84 µM | GI50 (UACC-257 melanoma) 7.92 µM | GI50 (KM12 colon) 2.76 µM | GI50 (SK-OV-3 ovarian) 21.6 µM | GI50 (HS 578T breast) 7.91 µM | GI50 (SF-539 CNS) 28 µM | GI50 (786-0 renal) 6.18 µM | GI50 (OVCAR-5 ovarian) > 100 µM | GI50 (SNB-19 CNS) 4.1 µM | GI50 (BT-549 breast) 5.75 µM | GI50 (MALME-3M melanoma) 5.29 µM | GI50 (MCF7 breast) 3.93 µM | GI50 (ACHN renal) 5.18 µM | GI50 (IGROV1 ovarian) 5.65 µM | GI50 (DU-145 prostate) 8.5 µM | GI50 (SK-MEL-28 melanoma) 64.2 µM | GI50 (UO-31 renal) 2.69 µM | GI50 (COLO 205 colon) 4.71 µM | GI50 (HT29 colon) > 100 µM | GI50 (OVCAR-8 ovarian) 9.03 µM | GI50 (NCI/ADR-RES ovarian) 4.17 µM | GI50 (SF-268 CNS) 9.03 µM | GI50 (NCI-H226 lung) 10.4 µM | GI50 (HOP-92 NSCLC) 1.65 µM | GI50 (OVCAR-4 ovarian) 6.11 µM | GI50 (SF-295 CNS) 2.93 µM | GI50 (SR leukemia) > 100 µM | GI50 (HL-60(TB) leukemia) 3.18 µM
23.2 µM: TGI (OVCAR-3 ovarian)
26.4 µM: TGI (SNB-75 CNS)
36.9 µM: TGI (HOP-62 NSCLC)
